From patent publication US20050033035A1, “Mutants of igf binding proteins and methods of production of antagonists thereof” (priority 2001, published 2005)
Where two headings read alike, the source gives them in different places.

Legend:
IGFBP-5 = biological target: T1, IGFBP-5 (Homo sapiens, UniProt P24593); assay: Detection of ligand binding by 15N-HSQC NMR titration
T1 construct: His-tag (N); T7-tag (pET-28a construct only) (N); made in house; host or cells: E. coli BL21
Method: Ligand binding was detected by acquiring ^15N—HSQC spectra. All NMR spectra were acquired at 300 K on Bruker DRX600 spectrometer. The samples for NMR spectroscopy were concentrated and dialyzed against PBS buffer. Typically, the sample concentration was varied from 0.3 to 1.0 mM. Before measuring, the sample was centrifuged in order to sediment aggregates and other macroscopic particles. 450 μl of the protein solution were mixed with 50 μl of D2O (5-10%) and transferred to an NMR sample tube. The stock solutions of compounds were 100 mM either in water or in perdeuterated DMSO. pH was maintained constant during the whole titration. The binding was monitored by observation of the changes in the ^15N—HSQC spectrum. Dissociation constants were obtained by monitoring the chemical shift changes of the backbone amide of several amino acid residues (Table 9) as a function of ligand concentration. Data were fit using a single binding site model.

[1] = biological target: T2, complex of IGFBP-5 and IGF-I (Homo sapiens, UniProt P24593); assay: Release of IGF-I from the complex with IGFBP-5 measured by 125I-IGF-I binding to IGF-R expressing NIH 3T3 cells; type: cell-based; settings: 10 or 100 nM IGFBP-5, 5 pM 125I-IGF-I, FIG. 7
T2 sequence (P24593 21-272, one chain of several): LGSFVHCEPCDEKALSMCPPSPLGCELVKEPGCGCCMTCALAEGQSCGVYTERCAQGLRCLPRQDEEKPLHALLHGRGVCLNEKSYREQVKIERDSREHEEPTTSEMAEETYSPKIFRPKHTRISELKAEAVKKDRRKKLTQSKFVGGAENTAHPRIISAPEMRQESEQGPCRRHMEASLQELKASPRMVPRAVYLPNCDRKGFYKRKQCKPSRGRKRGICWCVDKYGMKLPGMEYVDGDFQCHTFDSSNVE
Method: Kalus, W., et al., in EMBO J. 17 (1998) 6558-6572, describe the inhibition of the binding of IGF-I to IGF-R expressing NIH 3T3 cells by formation of an inhibitory complex. This assay was used to investigate the release of IGF-I from the inhibitory complex with IGFBP-5.
NIH 3T3 cells stably expressing human IGF-R were grown in culture dishes in Dulbecco's modified Eagle's medium (DMEM) containing 10% fetal calf serum. Cells were washed carefully with PBS and incubated with 5 ml of 50 mM EDTA in PBS for 45 min. Cells were removed from the plate, washed once with PBS and once with binding buffer (100 mM HEPES pH 7.6, 120 mM NaCl, 5 mM KCl, 1.2 mM MgSO 4, 1 mM EDTA, 10 mM glucose, 15 mM sodium acetate, 1% dialysed BSA), and resuspended in binding buffer to determine the cell number. 5 pM ^125 I-IGF-I (Amersham) was preincubated with either 10 or 100 nM IGFBP-5 alone or in combination with 33 μM of the different compounds 1,2,3,4B and 4C at 4° C. for 1 h. Then 400 μl of the cell suspension corresponding to 2×10^5 cells were added to give a total volume of 500 μl. After 12 h incubation at 4° C., cells were washed with binding buffer (at 4° C.). Free hormone was removed by repeated centrifugation and resuspension in the binding buffer. The 125 I radioactivity bound to the cells was determined in a gamma-counter.

[2] = biological target: T2, complex of IGFBP-5 and IGF-I; assay: Release of IGF-I from the complex with IGFBP-5 measured by IGF-R activation (autophosphorylation) in NIH 3T3 cells; type: cell-based; settings: FIG. 8
Text: Kalus, W., et al., in EMBO J. 17 (1998) 6558-6572, describe the inhibition of the activation and autophosphorylation of the IGF-R by IGF-I in the presence of IGFBP-5. This assay was used to further investigate the release of IGF-I from the inhibitory complex with IGFBP-5 by compound 3. Binding of compound 3 to IGFBP-5 and dissociation of the complex of the binding protein with IGF-I should result in an activation and autophosphorylation of the IGF-R in the presence of IGFBP-5.
Confluent monolayers of the NIH 3T3 cells stably expressing human IGF-R in 3.5 cm dishes were starved in DMEM containing 0.5% dialysed fetal calf serum. After 48 h, cells were incubated without any hormone or with 10 nM IGF-I. Samples were preincubated with 100 nM IGFBP-5 and increasing concentrations of compound 3 from 0 to 50 μM at room temperature for 1 h. After a 10 min stimulation at 37° C., the medium was removed and cells were lysed with 250 μl of lysing buffer (20 mM HEPES pH 7.5, 150 mM NaCl, 10% glycerol, 1% NP-40, 1.5 mM MgCl 2, 1 mM EGTA), 10 mM sodium orthovanadate, and protease inhibitor cocktail Complete (Roche Molecular Biochemicals) for 10 min on ice. […] The protein concentration of the supernatant was determined using the BCA kit from Pierce according to the manufacturer's instructions. […]

IGF-I = IGF-I (Homo sapiens, UniProt P05019); settings: domain of IGFBP-5 residues 40-92; cited from earlier work
Chain of IGF-I (P05019 49-118 limits assumed): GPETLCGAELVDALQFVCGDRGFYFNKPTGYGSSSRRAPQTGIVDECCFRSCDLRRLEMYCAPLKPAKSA

IGF-II = IGF-II (Homo sapiens, UniProt P01344); settings: domain of IGFBP-5 residues 40-92; cited from earlier work
Chain of IGF-II (P01344 25-91 limits assumed): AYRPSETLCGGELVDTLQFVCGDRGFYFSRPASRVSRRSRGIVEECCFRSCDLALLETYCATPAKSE

tumor growth = settings: 1 mg/dose daily in mice; cited from earlier work
MCF-7 cells = settings: in vitro; cited from earlier work
MDA-MB-231 cells = settings: in vivo in mice; cited from earlier work
MDA-MB-435A cells = settings: in vitro; cited from earlier work
[3] = changes in chemical shift for the residue L81, read-out: KD

O=C(N[C@@H](Cc1ccc(OP(=O)(O)O)cc1)C(=O)O)OCC1c2ccccc2-c2ccccc21 [Compound 2, Nα-FMOC-O-phospho-L-tyrosine] showed a Kd (IGFBP-5; average over residues, read-out: ligand in DMSO KD) of 1.71 ± 0.37 mM, a Kd (IGFBP-5; average over residues, read-out: ligand in PBS KD) of 2.21 ± 0.4 mM and a Kd (IGFBP-5; [3]) of 2.78 ± 0.3 mM. For the same molecule, the Kd (IGFBP-5; residue K91, read-out: ligand in DMSO KD) was 2.42 ± 0.18 mM, the Kd (IGFBP-5; residue K91, read-out: ligand in PBS KD) was 2.12 ± 1.03 mM and the Kd (IGFBP-5; residue L73, read-out: ligand in DMSO KD) was 1.31 ± 0.17 mM. The Kd (IGFBP-5; residue L73, read-out: ligand in PBS KD) was 2.93 ± 1.41 mM, the Kd (IGFBP-5; residue R87, read-out: ligand in DMSO KD) was 1.64 ± 0.12 mM and the Kd (IGFBP-5; residue R87, read-out: ligand in PBS KD) was 2.36 ± 1 mM. For the same molecule, the Kd (IGFBP-5; residue S85, read-out: ligand in DMSO KD) was 1.38 ± 0.1 mM, the Kd (IGFBP-5; residue S85, read-out: ligand in PBS KD) was 2.33 ± 0.94 mM and the Kd (IGFBP-5; residue Y50, read-out: ligand in DMSO KD) was 1.58 ± 0.09 mM. The Kd (IGFBP-5; residue Y50, read-out: ligand in PBS KD) was 1.82 ± 0.95 mM, the Kd (IGFBP-5; residue Y86, read-out: ligand in DMSO KD) was 1.9 ± 0.17 mM and the Kd (IGFBP-5; residue Y86, read-out: ligand in PBS KD) was 1.72 ± 0.99 mM.

For CC(C)(C)Oc1ccc(C[C@H](NC(=O)OCC2c3ccccc3-c3ccccc32)C(=O)O)cc1 [Compound 2A, Nα-FMOC-O-tert-butyl-L-tyrosine], the Kd (IGFBP-5; [3]) was 0.718 ± 0.079 mM.

With O=C(N[C@@H](Cc1ccccc1)C(=O)O)OCC1c2ccccc2-c2ccccc21 [Compound 2B, Nα-FMOC-L-phenylalanine] the Kd (IGFBP-5; [3]) was 1.08 ± 0.507 mM.

For O=C(Nc1ccc(S(=O)(=O)F)cc1)c1cc(N=Nc2cc(Cl)ccc2Cl)c2ccccc2c1O [Compound 3, 4-(2,5-Dichlorophenylazo)-4′fluorosulfonyl-1-hydroxy-2-naphthanilide], the “release of IGF-I from the complex and binding of IGF-I to IGF-R expressing cells” value ([1]; 33 μM compound) was “release of IGF-I from the complex” and the “autophosphorylation of IGF-R in presence of inactive complex of IGFBP-5 and IGF-I” value ([2]; 50 uM compound 3, 100 nM IGFBP-5, 10 nM IGF-I) was “increased autophosphorylation of the receptor”.

With “IGFBP-5: human insulin-like growth factor binding protein 5, SwissProt P 24593” the “binding of labeled IGF-I to NIH 3T3 cells” value [1] was “inhibited” and the “autophosphorylation of IGF-R by IGF-I” value ([2]; 100 nM IGFBP-5, 10 nM IGF-I) was “inhibited”.

For “mini-IGFBP-5: domain of IGFBP-5 between residues 40-92 (GSALAEGQSCGVYTERCAQGLRCLPRQDEEKPLHALLHGRGVCLNEKSYREQVKI)”, the Kd (IGF-I) is given as 37 nM and the Kd (IGF-II) is given as 6 nM.

B1: pegylated IGFBP-1: IGFBP-1 covalently coupled to polyethylene glycol (van den Berg) (conjugate, UniProt P08833 26-259, looked up)
Insulin-like growth …: APWQCAPCSAEKLALCPPVSASCSEVTRSAGCGCCPMCALPLGAACGVATARCARGLSCRALPGEQQPLHALTRGQGACVQESDASAPHAAEAGSPESPESTEITEEELLDNFHLMAPSEEDHSILWDAISTYDGSKALHVTNIKKWKEPCRIELYRVVESLAKAQETSGEEISKFYLPNCNKNGFYHSRQCETSMDGEAGLCWCVYPWNGKRIPGSPEIRGDPNCQIYFNVQN
modifications: PEG
For B1, the “inhibition of tumor growth (response)” value (tumor growth) is given as “only partial response”.

B2: IGFBP-1: human insulin-like growth factor binding protein 1, SwissProt P 08833 (protein, UniProt P08833 26-259, looked up)
Insulin-like growth …: B1 Insulin-like growth …
For B2, the “growth of MCF-7 cells” value (MCF-7 cells) is given as “inhibits the growth”, the “growth of tumors formed MDA-MB-231 cells” value (MDA-MB-231 cells) is given as “inhibits the growth” and the “growth of MDA-MB-435A cells” value (MDA-MB-435A cells) is given as “inhibits the growth”.
